Tests used:
hA2b receptors = target: T1, hA2b receptors (Homo sapiens, UniProt P29275); experiment: Adenosine 2b receptor subtype competition radioligand binding ([3H]DPCPX); conditions: membranes from hA2b receptors transfected to HEK293 cells, 30 min at 25° C., read-out: IC50 A2b
T1 construct: purchased Receptor Biology, Inc. (USA); host or cells: HEK293
T1 sequence (P29275 1-332): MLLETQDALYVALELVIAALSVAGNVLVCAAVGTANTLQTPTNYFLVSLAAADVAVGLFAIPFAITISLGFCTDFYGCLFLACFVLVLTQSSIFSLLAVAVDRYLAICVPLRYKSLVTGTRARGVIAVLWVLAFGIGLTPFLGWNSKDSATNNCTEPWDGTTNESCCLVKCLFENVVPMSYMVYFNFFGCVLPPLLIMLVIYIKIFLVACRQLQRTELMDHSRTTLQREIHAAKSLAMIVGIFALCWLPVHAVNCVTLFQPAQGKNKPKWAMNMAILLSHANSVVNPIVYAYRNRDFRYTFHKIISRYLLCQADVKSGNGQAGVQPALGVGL
Protocol: Adenosine 2b Receptor Subtype Competition Radioligand Binding
Human membranes from recombinant A2b receptors were purchased from Receptor Biology, Inc. (USA).
Competition assays were carried out by incubation of membranes from hA2b receptors transfected to HEK293 cells, [^3H]DPCPX as radioligand, buffer (50 mM Tris-HCl (pH 6.5), 10 mM MgCl2, 1 mM EDTA, 0.1 mM benzamidine, 2 units/ml adenosine deaminase), and unlabelled ligand in a total volume of 0.1 ml for 30 min at 25° C. NECA was used to determinate non-specific binding. Filter over Schleicher&Schuell GF/52 filters (pre-soaked 0.5% polyethylenyimine) in a Brandel cell harvester. Unbound radioligand was removed with 4×2 ml ice-cold 50 mM Tris-Hcl 50 mM (pH 6.5).

hA2a receptors = target: T2, hA2a receptors (Homo sapiens, UniProt P29274); experiment: Adenosine 2a receptor subtype competition radioligand binding ([3H]ZM241385); conditions: membranes from hA2a receptors transfected to HEK293 cells, [3H]ZM241385, 90 min at 25° C.; read-out: IC50 A2a
T2 construct: purchased Receptor Biology, Inc. (USA); host or cells: HEK293
T2 sequence (P29274 whole entry): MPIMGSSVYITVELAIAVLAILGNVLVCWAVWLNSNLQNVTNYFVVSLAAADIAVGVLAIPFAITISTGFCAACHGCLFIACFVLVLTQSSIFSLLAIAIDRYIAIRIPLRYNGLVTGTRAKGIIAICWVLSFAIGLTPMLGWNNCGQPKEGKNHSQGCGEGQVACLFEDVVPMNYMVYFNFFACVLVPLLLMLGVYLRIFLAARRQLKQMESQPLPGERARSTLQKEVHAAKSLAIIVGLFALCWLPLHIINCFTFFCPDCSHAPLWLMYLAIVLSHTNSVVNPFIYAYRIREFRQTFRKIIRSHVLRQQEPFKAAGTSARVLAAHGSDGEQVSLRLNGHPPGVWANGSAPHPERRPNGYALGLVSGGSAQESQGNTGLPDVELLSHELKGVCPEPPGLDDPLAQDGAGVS
Protocol: Adenosine 2a Receptor Subtype Competition Radioligand Binding
Human membranes from recombinant A2a receptors were purchased from Receptor Biology, Inc. (USA).
Competition assays were carried out by incubation of membranes from hA2a receptors transfected to HEK293 cells, [^3H]ZM241385 as radioligand, buffer (50 mM Tris-HCl (pH 7.4), 10 mM MgCl2, 1 mM EDTA, 2 units/ml adenosine deaminase), and unlabelled ligand in a total volume of 0.2 ml for 90 min at 25° C. NECA was used to determinate non-specific binding. Filter over Schleicher&Schuell GF/52 filters (pre-soaked 0.5% polyethylenyimine) in a Brandel cell harvester. Unbound radioligand was removed with 3×3 ml ice-cold 50 mM Tris-Hcl 50 mM (pH 7.4), 0.9% NaCl.

Row | IC50 (hA2b receptors) [nM] | IC50 (hA2a receptors) [nM] | melting point | SMILES
1 | 7 |  |  | CCCn1c(=O)c2[nH]c(-c3ccc(OCC(=O)N4CCN(c5ccccc5)CC4)cc3)cc2n(CCC)c1=O [Example 2, 6-{4-[2-Oxo-2-(4-phenylpiperazin-1-yl)ethoxy]phenyl}-1,3-dipropyl-1,5-dihydropyrrolo[3,2-d]pyrimidine-2,4-dione]
2 | 5 | 22 |  | CCCn1c(=O)c2[nH]c(-c3ccc(OCC(=O)Nc4ccc(F)cc4)cc3)cc2n(CCC)c1=O [Example 3, 2-[4-(2,4-Dioxo-1,3-dipropyl-2,3,4,5-tetrahydro-1H-pyrrolo[3,2-d]pyrimidin-6-yl)phenoxy]-N-(4-fluorophenyl)acetamide]
3 | 3 |  |  | CCCn1c(=O)c2[nH]c(-c3ccc(OCC(=O)N4CCc5ccccc5C4)cc3)cc2n(CCC)c1=O [Example 4]
4 | 24 | 26 |  | Cn1c(=O)c2[nH]c(-c3ccc(OCC(=O)Nc4nncs4)cc3)cc2n(C)c1=O [Example 67, 2-[4-(1,3-Dimethyl-2,4-dioxo-2,3,4,5-tetrahydro-1H-pyrrolo[3,2-d]pyrimidin-6-yl)phenoxy]-N-[1,3,4]thiadiazol-2-ylacetamide]
5 | 8 |  |  | Cn1c(=O)c2[nH]c(-c3ccc(OCC(=O)N4CCN(c5ccccc5)CC4)cc3)cc2n(C)c1=O [Example 68, 1,3-Dimethyl-6-{4-[2-oxo-2-(4-phenylpiperazin-1-yl)ethoxy]phenyl}-1,5-dihydropyrrolo[3,2-d]pyrimidine-2,4-dione]
6 |  |  | > 275 °C (dec.) | Cn1c(=O)c2[nH]c(-c3ccc(OCC(=O)N4CCN(c5cccc(C(F)(F)F)c5)CC4)cc3)cc2n(C)c1=O [Example 74, 1,3-Dimethyl-6-(4-{2-oxo-2-[4-(3-trifluoromethylphenyl)piperazin-1-yl]ethoxy}phenyl)-1,5-dihydropyrrolo[3,2-d]pyrimidine-2,4-dione]
7 | 10 |  |  | CCCn1c(=O)c2[nH]c(-c3ccc(OCC(=O)N4CCC(c5ccccc5)(c5ccccc5)CC4)cc3)cc2n(C)c1=O [Example 100, 6-{4-[2-(4,4-Diphenylpiperidin-1-yl)-2-oxo-ethoxy]phenyl}-1-methyl-3-propyl-1,5-dihydropyrrolo[3,2-d]pyrimidine-2,4 dione]
8 |  | 38 |  | CCCn1c(=O)c2[nH]c(-c3ccc(OCC(=O)Nc4ccc(F)cc4)cc3)c(Br)c2n(CCC)c1=O [Example 138, 2-[4-(7-Bromo-2,4-dioxo-1,3-dipropyl-2,3,4,5-tetrahydro-1H-pyrrolo[3,2-d]pyrimidin-6-yl)phenoxy]-N-(4-fluorophenyl)acetamide]
9 |  | 84 |  | COc1cc(-c2cc3c([nH]2)c(=O)n(C)c(=O)n3C)ccc1OCC(=O)Nc1ccc(F)cc1 [Example 160, 2-[4-(1,3-Dimethyl-2,4-dioxo-2,3,4,5-tetrahydro-1H-pyrrolo[3,2-d]pyrimidin-6-yl)-2-methoxyphenoxy]-N-(4-fluorophenyl)acetamide]
10 | 17 |  |  | CCCn1c(=O)c2[nH]c(-c3ccc(OCc4nc(-c5ccccc5)no4)cc3)cc2n(CCC)c1=O [Example 210, 6-[4-(3-Phenyl[1,2,4]oxadiazol-5-ylmethoxy)phenyl]-1,3-dipropyl-1,5-dihydropyrrolo[3,2-d]pyrimidine-2,4-dione]
11 |  |  | 182 to 185 °C | CCCn1c(=O)c2[nH]c(-c3ccc(COC(=O)Nc4cc(OC)nc(OC)n4)cc3)cc2n(CCC)c1=O [Example 259, (2,6-Dimethoxy-pyrimidin-4-yl)-carbamic Acid 4-(2,4-dioxo-1,3-dipropyl-2,3,4,5-tetrahydro-1H-pyrrolo[3,2-d]pyrimidin-6-yl)benzyl Ester]
12 |  |  | 301 °C | Cn1c(=O)c2[nH]c(-c3ccc(COC(=O)Nc4ccccn4)cc3)cc2n(C)c1=O [Example 268, Pyridin-2-yl-carbamic acid 4-(1,3-dimethyl-2,4-dioxo-2,3,4,5-tetrahydro-1H-pyrrolo[3,2-d]pyrimidin-6-yl)benzyl ester]
13 |  |  | 293 °C | Cc1ccc(NC(=O)OCc2ccc(-c3cc4c([nH]3)c(=O)n(C)c(=O)n4C)cc2)nc1 [Example 269, (5-Methylpyridin-2-yl)-carbamic acid 4-(1,3-dimethyl-2,4-dioxo-2,3,4,5-tetrahydro-1H-pyrrolo[3,2-d]pyrimidin-6-yl)benzyl ester]
14 |  |  | 287 °C | Cn1c(=O)c2[nH]c(-c3ccc(COC(=O)Nc4cccs4)cc3)cc2n(C)c1=O [Example 270, Thiophen-2-yl-carbamic acid 4-(1,3-dimethyl-2,4-dioxo-2,3,4,5-tetrahydro-1H-pyrrolo[3,2-d]pyrimidin-6-yl)-benzyl ester]
15 |  |  | 280 °C | Cn1c(=O)c2[nH]c(-c3ccc(COC(=O)Nc4ccsc4)cc3)cc2n(C)c1=O [Example 271, Thiophen-3-yl-carbamic acid 4-(1,3-dimethyl-2,4-dioxo-2,3,4,5-tetrahydro-1H-pyrrolo[3,2-d]pyrimidin-6-yl)-benzyl ester]
16 |  |  | 278 °C | Cn1c(=O)c2[nH]c(-c3ccc(COC(=O)Nc4ccco4)cc3)cc2n(C)c1=O [Example 272, Furan-2-yl-carbamic acid 4-(1,3-dimethyl-2,4-dioxo-2,3,4,5-tetrahydro 1H-pyrrolo[3,2-d]pyrimidin-6-yl)-benzyl ester]

Source: patent publication US20050070558A1, “6-Phenyldihydropyrrolopyrimidinedione derivatives” (priority 2001, published 2005)
